Reference: US4314061A, “Certain 3,6-bis-(heteroaminoalkoxy) acridines” (priority 1980, dated 1982)
Where a name gives a salt, the structure may show the parent alone.

Legend:
Columbia SK virus [1] = assay: Antiviral effects against an interferon-sensitive virus, Columbia SK; format: in vivo, Taconic Farms male, white mice; settings: 400 mg/kg oral, 18 hours before infection; 14 days post injection
Procedure: Taconic Farms male, white mice, weighing 18-24 g were treated by gavage, 18 hours before infection with a test compound suspended or dissolved in 1.0 ml of 0.2% aqueous agar solution. The mice were then infected by subcutaneous injection with one LD95 of Columbia SK virus in 0.2 ml of distilled water. Groups of infected, untreated mice were used as controls to show the lethality of the infection. The test duration was 14 days.

[2] = tested on: Rauscher Virus-Induced Leukemia; assay: Inhibition of splenomegaly in mice with Rauscher virus-induced leukemia; format: in vivo, Balb/c mice; settings: for reduction in splenomegaly: general statement, no dose, relative to placebo treated RLV-infected mice
[3] = tested on: Rauscher Virus-Induced Leukemia; assay: Restoration of antibody formation in mice with Rauscher virus-induced leukemia; format: in vivo, Balb/c mice
B16 melanoma = assay: Distribution of metastatic foci in lungs of mice inoculated subcutaneously with B16 melanoma; format: in vivo, BDF1 mice; settings: for No. of mice with 0 lung foci/mouse / No. of mice with 1-5 lung foci/mouse / No. of mice with 6-10 lung foci/mouse / No. of mice with 11-15 lung foci/mouse / No. of mice with >15 lung foci/mouse: day 25
Procedure: BDF1 male mice inoculated subcutaneously with 0.25 ml of a 10% tumor
homogenate on day 0. Drugs administered intraperitoneally days 1,5,9 and
13; mice sacrificed on day 25, 10 mice per group. Distribution of […]

Columbia SK virus [4] = assay: Protection of mice against lethal Columbia SK virus infection by oral pre-treatment; format: in vivo, random-bred Swiss male mice; settings: 200 mg/kg oral
Procedure: At 24, 48, 72 and 96 hours after drug treatment, separate groups of mice were injected SC with an LD95 dose of the interferon sensitive virus, Columbia SK. […] Typically, protection from lethal infection with Columbia SK virus is associated with induction of interferon.

[5] = tested on: natural killer lymphocytes (NK cells); assay: Stimulation of NK-cell activity in normal mice; settings: 10 mg/kg intraperitoneal

CCN(CC)C(C)COc1ccc2cc3ccc(OCC(C)N(CC)CC)cc3nc2c1.Cl.Cl.Cl (centres unmarked) [3,6-Bis(2-diethylaminopropoxy)acridine . 3HCl]
Survivors/Total (Columbia SK virus [1]): 13/15

CCNCCOc1ccc2cc3ccc(OCCNCC)cc3nc2c1.Cl.Cl.Cl [3,6-Bis(2-ethylaminoethoxy)acridine trihydrochloride]
% Reduction in splenomegaly ([2]; 100 mg/kg): 89% | Survivors/Total (Columbia SK virus [1]): 10/15

CCN(CC)CCOc1ccc2cc3ccc(OCCN(CC)CC)c(Cl)c3nc2c1Cl [3,6-bis(2-diethylaminoethoxy)-4,5-dichloroacridine]
Serum hemagglutinin titer/saline control titer ([3]; 100 mg/kg oral): 128/16 | % Reduction in splenomegaly ([2]; 50 mg/kg): 86% | Survivors/Total (Columbia SK virus [1]): 7/15

CCN(CC)CCOc1ccc2cc3ccc(OCCN(CC)CC)c([N+](=O)[O-])c3nc2c1[N+](=O)[O-] [3,6-bis(2-diethylaminoethoxy)-4,5-dinitroacridine]
% Reduction in splenomegaly ([2]; 100 mg/kg): 108%

CN(C)CCOc1ccc2cc3ccc(OCCN(C)C)cc3nc2c1.Cl.Cl.Cl [3,6-bis(2-dimethylaminoethoxy)acridine trihydrochloride]
No. of mice with 0 lung foci/mouse (B16 melanoma; 6.5 mg/kg i.p.): 0 | No. of mice with 1-5 lung foci/mouse (B16 melanoma; 6.5 mg/kg i.p.): 3 | No. of mice with 6-10 lung foci/mouse (B16 melanoma; 6.5 mg/kg i.p.): 3 | No. of mice with 11-15 lung foci/mouse (B16 melanoma; 6.5 mg/kg i.p.): 1 | No. of mice with >15 lung foci/mouse (B16 melanoma; 6.5 mg/kg i.p.): 1 | No. of mice with 0 lung foci/mouse (B16 melanoma; 12.5 mg/kg i.p.): 1 | No. of mice with 1-5 lung foci/mouse (B16 melanoma; 12.5 mg/kg i.p.): 5 | No. of mice with 6-10 lung foci/mouse (B16 melanoma; 12.5 mg/kg i.p.): 1 | No. of mice with 11-15 lung foci/mouse (B16 melanoma; 12.5 mg/kg i.p.): 1 | No. of mice with >15 lung foci/mouse (B16 melanoma; 12.5 mg/kg i.p.): 1 | No. of mice with 0 lung foci/mouse (B16 melanoma; 25 mg/kg i.p.): 2 | No. of mice with 1-5 lung foci/mouse (B16 melanoma; 25 mg/kg i.p.): 4 | No. of mice with 6-10 lung foci/mouse (B16 melanoma; 25 mg/kg i.p.): 2 | No. of mice with 11-15 lung foci/mouse (B16 melanoma; 25 mg/kg i.p.): 1 | No. of mice with >15 lung foci/mouse (B16 melanoma; 25 mg/kg i.p.): 0 | No. of mice with 0 lung foci/mouse (B16 melanoma; 50 mg/kg i.p.): 1 | No. of mice with 1-5 lung foci/mouse (B16 melanoma; 50 mg/kg i.p.): 1 | No. of mice with 6-10 lung foci/mouse (B16 melanoma; 50 mg/kg i.p.): 4 | No. of mice with 11-15 lung foci/mouse (B16 melanoma; 50 mg/kg i.p.): 0 | No. of mice with >15 lung foci/mouse (B16 melanoma; 50 mg/kg i.p.): 0 | No. of mice with 0 lung foci/mouse (B16 melanoma; 100 mg/kg i.p.): 3 | No. of mice with 1-5 lung foci/mouse (B16 melanoma; 100 mg/kg i.p.): 7 | No. of mice with 6-10 lung foci/mouse (B16 melanoma; 100 mg/kg i.p.): 0 | No. of mice with 11-15 lung foci/mouse (B16 melanoma; 100 mg/kg i.p.): 0 | No. of mice with >15 lung foci/mouse (B16 melanoma; 100 mg/kg i.p.): 0 | Mortality (in place of lung foci count) (B16 melanoma; 200 mg/kg i.p. days 1,5,9,13): All mice dead

CC(C)NCCOc1ccc2cc3ccc(OCCNC(C)C)cc3nc2c1.Cl.Cl.Cl [3,6-bis(2-isopropylaminoethoxy)acridine trihydrochloride]
Serum hemagglutinin titer/saline control titer ([3]; 100 mg/kg oral): 512/32 | % Reduction in splenomegaly ([2]; 200 mg/kg): 96% | Survivors/Total (Columbia SK virus [1]): 15/15

Cl.Cl.Cl.c1cc2cc3ccc(OCCN4CCCCC4)cc3nc2cc1OCCN1CCCCC1 [3,6-bis(2-piperidinoethoxy)acridine trihydrochloride]
Serum hemagglutinin titer/saline control titer ([3]; 100 mg/kg oral): 256/16 | % Reduction in splenomegaly ([2]; 100 mg/kg): 84% | Survivors/Total (Columbia SK virus [1]): 12/15

c1cc2cc3ccc(OCCCN4CCCCC4)cc3nc2cc1OCCCN1CCCCC1 [3,6-bis[3-(1-piperidino)propoxy]acridine trihydrochloride]
Serum hemagglutinin titer/saline control titer ([3]; 50 mg/kg oral): 1024/32 | % Reduction in splenomegaly ([2]; 50 mg/kg): 74% | Survivors/Total (Columbia SK virus [1]): 12/15

O=c1[nH]cc(F)c(=O)[nH]1 [5-fluorouracil, reference compound]
No. of mice with 0 lung foci/mouse (B16 melanoma; 20 mg/kg i.p.): 1 | No. of mice with 1-5 lung foci/mouse (B16 melanoma; 20 mg/kg i.p.): 2 | No. of mice with 6-10 lung foci/mouse (B16 melanoma; 20 mg/kg i.p.): 1 | No. of mice with 11-15 lung foci/mouse (B16 melanoma; 20 mg/kg i.p.): 2 | No. of mice with >15 lung foci/mouse (B16 melanoma; 20 mg/kg i.p.): 1 | No. of mice with 0 lung foci/mouse (B16 melanoma; 25 mg/kg i.p.): 3 | No. of mice with 1-5 lung foci/mouse (B16 melanoma; 25 mg/kg i.p.): 3 | No. of mice with 6-10 lung foci/mouse (B16 melanoma; 25 mg/kg i.p.): 1 | No. of mice with 11-15 lung foci/mouse (B16 melanoma; 25 mg/kg i.p.): 1 | No. of mice with >15 lung foci/mouse (B16 melanoma; 25 mg/kg i.p.): 1 | No. of mice with 0 lung foci/mouse (B16 melanoma; 30 mg/kg i.p.): 3 | No. of mice with 1-5 lung foci/mouse (B16 melanoma; 30 mg/kg i.p.): 3 | No. of mice with 6-10 lung foci/mouse (B16 melanoma; 30 mg/kg i.p.): 3 | No. of mice with 11-15 lung foci/mouse (B16 melanoma; 30 mg/kg i.p.): 0 | No. of mice with >15 lung foci/mouse (B16 melanoma; 30 mg/kg i.p.): 0 | No. of mice with 0 lung foci/mouse (B16 melanoma; 40 mg/kg i.p.): 2 | No. of mice with 1-5 lung foci/mouse (B16 melanoma; 40 mg/kg i.p.): 5 | No. of mice with 6-10 lung foci/mouse (B16 melanoma; 40 mg/kg i.p.): 4 | No. of mice with 11-15 lung foci/mouse (B16 melanoma; 40 mg/kg i.p.): 0 | No. of mice with >15 lung foci/mouse (B16 melanoma; 40 mg/kg i.p.): 0 | No. of mice with 0 lung foci/mouse (B16 melanoma; 50 mg/kg i.p.): 2 | No. of mice with 1-5 lung foci/mouse (B16 melanoma; 50 mg/kg i.p.): 4 | No. of mice with 6-10 lung foci/mouse (B16 melanoma; 50 mg/kg i.p.): 3 | No. of mice with 11-15 lung foci/mouse (B16 melanoma; 50 mg/kg i.p.): 0 | No. of mice with >15 lung foci/mouse (B16 melanoma; 50 mg/kg i.p.): 0 | % Reduction in splenomegaly ([2]; 50 mg/kg): 115% | reduction in splenomegaly [2]: ≥ 50%

Sc1ncnc2nc[nH]c12 [6-Mercaptopurine, 6-mercaptopurine, reference compound]
% Reduction in splenomegaly ([2]; 100 mg/kg): 113% | reduction in splenomegaly [2]: ≥ 50%

CN(Cc1cnc2nc(N)nc(N)c2n1)c1ccc(C(=O)N[C@@H](CCC(=O)O)C(=O)O)cc1 [Methotrexate, reference compound]
% Reduction in splenomegaly ([2]; 4 mg/kg): 59% | reduction in splenomegaly [2]: ≥ 50%

CCN(CC)CCOc1ccc2c(c1)C(=O)c1cc(OCCN(CC)CC)ccc1-2 [Tilorone, tilorone hydrochloride, reference compound]
Survivors/Total (14 Days) (Columbia SK virus [4]; -24 hr relative to virus challenge, * p <.01): 18/20 | Survivors/Total (14 Days) (Columbia SK virus [4]; -48 hr relative to virus challenge, * p <.01): 15/20 | Survivors/Total (14 Days) (Columbia SK virus [4]; -72 hr relative to virus challenge, * p <.01): 9/20 | Survivors/Total (14 Days) (Columbia SK virus [4]; -96 hr relative to virus challenge): 8/20

polyinosinic acid:polycytidylic acid [Poly I:C, reference compound]
% Cytotoxicity ([5]; Test 1 (CD1 mice), * p <.05): 24.7% | % Cytotoxicity ([5]; Test 2 (BDF1 hybrids)): 36.1% | Serum hemagglutinin titer/saline control titer ([3]; 10 mg/kg IP): 1024/32
